Results: PubChem BioAssay AID2060499 (Molecular Pharmacology Branch, DTP, NCI, 2025)

Tested on: 777334-354-R2-J4-PDC tumor spheroids with HUVEC/MSC, viability
Assay: Anticancer human tumor 777334-354-R2-J4-PDC patient-derived pancreatic adenocarcinoma cell line growth inhibition [GQUAD]
Conditions: for IC50: curve of first compound; for viability, T/C: stronger effect = lower value
From the text: DNA G-quadruplex Stabilizer Agents in Combinations in Complex Spheroids
A high-throughput screen of multi-cell type tumor spheroids was designed to identify active combinations of DNA G-quadruplex stabilizer agents and targeted small molecules. Complex spheroids include a stromal component modeled by human endothelial cells (HUVEC) and fibroblasts modeled by human mesenchymal stem cells (MSCs). The concentration ranges selected for each drug and investigational agent were based upon clinically achievable concentrations if the clinical Cmax of the agent was known.
Compounds. The drugs and investigational agents: pidnarulex (CX-5461; NSC782164), APTO-253 (NSC789042), BRACO-19 (NSC847499), peposertib (NSC802822), ceralasertib (NSC780249), elimusertib (NSC800525), camonsertib (NSC841442), AZD-1390 (NSC803789), olaparib (NSC753686), talazoparib (NSC767125), ART-558 (NSC835418), sotorasib (NSC818433), MRTX-1133 (NSC836407), SN-38 (NSC673596), topotecan (NSC609699), etoposide (NSC141540), doxorubicin (NSC123127), gemcitabine (NSC613327), 5-fluorouracil (NSC19893), paclitaxel (NSC125973), vemurafenib (NSC761431), panobinostat (NSC761190), R-306465 (JNJ-16241199; NSC773264), adavosertib (NSC754352), TP-3654 (NSC805149), carboplatin (NSC241240), KSQ-4279 (NSC840948), and staurosporine (NSC755774) were obtained from the National Cancer Institute (NCI) Developmental Therapeutics Program Chemical Repository (34). The FDA-approved anticancer drug set is available from the NCI Developmental Therapeutics Program. […] The stock solutions were prepared in dimethyl sulfoxide (DMSO, Sigma-Aldrich, St. Louis, MO, cat. D2650) at 800-fold the tested concentration and stored at -70 degrees C prior to their use. All drugs and investigational agents were tested over a range starting from a high concentration at or near the clinical Cmax and decreasing in half-log increments. If the clinical Cmax for an agent had not been determined, the highest concentration tested was 10 microM.
2.3 Cell Culture. All cells were maintained in an incubator at 37 degrees C and 5% CO2 with 95% humidity. The PDC lines were cultured according to standard operating procedures established by the NCI PDMR. All PDCs were thawed and cultured in Matrigel-coated flasks prepared with a working solution of 1X Ham's F-12 nutrient mix, without supplementation (Invitrogen, cat. 11765054), 100 U/mL penicillin-streptomycin (Invitrogen, cat. 15140122), and 2.5% Matrigel (Corning Inc., cat. 354248) for the first three passages. The 857933-349-R-J2-PDC line was cultured in 6C/Colon 1B media, which includes advanced DMEM/F-12 (Thermo Fisher Scientific, cat. 12634028), 10 mM HEPES (Thermo Fisher Scientific, cat. 15630080), 1X GlutaMAX supplement (Thermo Fisher Scientific, cat. 35050061), 0.1 mg/mL primocin (InvivoGen, cat. ant-pm-2), 10% defined fetal bovine serum, heat inactivated (HyClone Laboratories Inc., cat. SH30070.03HI), 50% L-WRN conditioned media (ATCC, cat. CRL-3276), 1.25 mM N-Acetyl-L-cysteine (Sigma-Aldrich, cat. A9165), 10 mM nicotinamide (Sigma-Aldrich, cat. N0636), 1X B-27 supplement (Thermo Fisher Scientific, cat. 17504044), 1X N-2 supplement (Thermo Fisher Scientific, cat. 17502048), 10 microM Y-27632 dihydrochloride (Tocris Bioscience, cat. 1254), and 50 ng/mL human EGF recombinant protein (Thermo Fisher Scientific, cat. PHG0311). The 485176-168-R4-J1-PDC line was cultured in Panc media, which includes all 6C/Colon 1B media components plus 100 ng/mL human FGF-10 (Thermo Fisher Scientific, cat. 100-26), 500 nM SB-431542 (Selleckchem, cat. S1067), and gastrin (Tocris, cat. 3006).
[…]

[1] = second compound 0.0316 µM, first compound 0.0316 µM
[2] = second compound 0.0316 µM, first compound 0.1 µM
[3] = second compound 0.0316 µM, first compound 0.316 µM
[4] = second compound 0.0316 µM, first compound 1 µM
[5] = second compound 0.0316 µM, first compound 3.16 µM
[6] = second compound 0.0316 µM, first compound 10 µM
[7] = second compound 0.1 µM, first compound 0.0316 µM
[8] = second compound 0.1 µM, first compound 0.1 µM
[9] = second compound 0.1 µM, first compound 0.316 µM
[10] = second compound 0.1 µM, first compound 1 µM
[11] = second compound 0.1 µM, first compound 3.16 µM
[12] = second compound 0.1 µM, first compound 10 µM
[13] = second compound 0.316 µM, first compound 0.0316 µM
[14] = second compound 0.316 µM, first compound 0.1 µM
[15] = second compound 0.316 µM, first compound 0.316 µM
[16] = second compound 0.316 µM, first compound 1 µM
[17] = second compound 0.316 µM, first compound 3.16 µM
[18] = second compound 0.316 µM, first compound 10 µM
[19] = second compound 1 µM, first compound 0.0316 µM
[20] = second compound 1 µM, first compound 0.1 µM
[21] = second compound 1 µM, first compound 0.316 µM
[22] = second compound 1 µM, first compound 1 µM
[23] = second compound 1 µM, first compound 3.16 µM
[24] = second compound 1 µM, first compound 10 µM
[25] = second compound 3.16 µM, first compound 0.0316 µM
[26] = second compound 3.16 µM, first compound 0.1 µM
[27] = second compound 3.16 µM, first compound 0.316 µM
[28] = second compound 3.16 µM, first compound 1 µM
[29] = second compound 3.16 µM, first compound 3.16 µM
[30] = second compound 3.16 µM, first compound 10 µM
[31] = second compound 10 µM, first compound 0.0316 µM
[32] = second compound 10 µM, first compound 0.1 µM
[33] = second compound 10 µM, first compound 0.316 µM
[34] = second compound 10 µM, first compound 1 µM
[35] = second compound 10 µM, first compound 3.16 µM
[36] = second compound 10 µM, first compound 10 µM
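Also: spheroids exposed to compounds for 7 days before readout.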

Question: What does the source list for `CC(C)n1c(=O)n(C)c2cnc3cc(F)c(-c4ccc(OCCCN5CCCCC5)nc4)cc3c21` + CN(C)c1ccc(Nc2c3ccc(NC(=O)CCN4CCCC4)cc3nc3cc(NC(=O)CCN4CCCC4)ccc23)cc1?
Answer: IC50 (second compound 0.0316 µM): > 10000 nM; IC50 (second compound 0.1 µM): > 10000 nM; IC50 (second compound 0.316 µM): > 10000 nM; IC50 (second compound 1 µM): > 10000 nM; IC50 (second compound 3.16 µM): > 10000 nM; IC50 (second compound 10 µM): 1650 nM; viability, T/C [1]: 103%; viability, T/C [2]: 94.4%; viability, T/C [3]: 99.3%; viability, T/C [4]: 107%; viability, T/C [5]: 115%; viability, T/C [6]: 92.3%; viability, T/C [7]: 94%; viability, T/C [8]: 93%; viability, T/C [9]: 115%; viability, T/C [10]: 104%; viability, T/C [11]: 113%; viability, T/C [12]: 93.4%; viability, T/C [13]: 98.2%; viability, T/C [14]: 111%; viability, T/C [15]: 100%; viability, T/C [16]: 107%; viability, T/C [17]: 105%; viability, T/C [18]: 77.5%; viability, T/C [19]: 81.7%; viability, T/C [20]: 85.6%; viability, T/C [21]: 101%; viability, T/C [22]: 90%; viability, T/C [23]: 103%; viability, T/C [24]: 75.2%; viability, T/C [25]: 84.9%; viability, T/C [26]: 75.3%; viability, T/C [27]: 85.6%; viability, T/C [28]: 83.2%; viability, T/C [29]: 91.8%; viability, T/C [30]: 62.1%; viability, T/C [31]: 81.5%; viability, T/C [32]: 75%; viability, T/C [33]: 61.4%; viability, T/C [34]: 58.6%; viability, T/C [35]: 42.2%; viability, T/C [36]: 31.7%

Question: For `CC1COCCN1c1cc(-c2ccnn2C)c2ccnc(-c3ccn[nH]3)c2n1` (centres undefined) + CN(C)c1ccc(Nc2c3ccc(NC(=O)CCN4CCCC4)cc3nc3cc(NC(=O)CCN4CCCC4)ccc23)cc1, which IC50 (second compound 0.0316 µM) is on record?
Answer: Its IC50 is 1270 nM.

Question: What about the IC50 (second compound 0.1 µM) of the same compound?
Answer: Its IC50 is 1060 nM.

Question: And the IC50 (second compound 0.316 µM)?
Answer: Its IC50 is 789 nM.

Question: And the IC50 (second compound 1 µM)?
Answer: Its IC50 is 654 nM.

Question: What about the IC50 (second compound 3.16 µM) of the same compound?
Answer: Its IC50 is 590 nM.

Question: What about the IC50 (second compound 10 µM) of the same compound?
Answer: The IC50 was 555 nM.

Question: And the viability, T/C [1]?
Answer: Its viability, T/C is 103%.

Question: What about the viability, T/C [2] of the same compound?
Answer: Its viability, T/C is 84.2%.

Question: What about the viability, T/C [3] of the same compound?
Answer: Its viability, T/C is 61.7%.

Question: What about the viability, T/C [4] of the same compound?
Answer: The viability, T/C was 53.9%.

Question: And the viability, T/C [5]?
Answer: The viability, T/C was 44.4%.

Question: What about the viability, T/C [6] of the same compound?
Answer: Its viability, T/C is 29%.

Question: And the viability, T/C [7]?
Answer: The viability, T/C was 106%.

Question: And the viability, T/C [8]?
Answer: The viability, T/C was 77%.

Question: And the viability, T/C [9]?
Answer: Its viability, T/C is 66%.

Question: And the viability, T/C [10]?
Answer: The viability, T/C was 53.5%.

Question: What about the viability, T/C [11] of the same compound?
Answer: The viability, T/C was 40.1%.

Question: What about the viability, T/C [12] of the same compound?
Answer: The viability, T/C was 30.6%.

Question: And the viability, T/C [13]?
Answer: The viability, T/C was 93.9%.

Question: What about the viability, T/C [14] of the same compound?
Answer: The viability, T/C was 78%.

Question: What about the viability, T/C [15] of the same compound?
Answer: Its viability, T/C is 59.4%.

Question: And the viability, T/C [16]?
Answer: Its viability, T/C is 46.6%.

Question: And the viability, T/C [17]?
Answer: Its viability, T/C is 38.4%.

Question: What about the viability, T/C [18] of the same compound?
Answer: Its viability, T/C is 27.5%.

Question: And the viability, T/C [19]?
Answer: The viability, T/C was 90.8%.

Question: What about the viability, T/C [20] of the same compound?
Answer: The viability, T/C was 77.1%.

Question: And the viability, T/C [21]?
Answer: The viability, T/C was 51.7%.

Question: What about the viability, T/C [22] of the same compound?
Answer: Its viability, T/C is 48.2%.

Question: What about the viability, T/C [23] of the same compound?
Answer: The viability, T/C was 37.2%.

Question: What about the viability, T/C [24] of the same compound?
Answer: Its viability, T/C is 27.2%.

Question: What about the viability, T/C [25] of the same compound?
Answer: The viability, T/C was 87.4%.

Question: And the viability, T/C [26]?
Answer: The viability, T/C was 65.2%.

Question: What about the viability, T/C [27] of the same compound?
Answer: The viability, T/C was 53.9%.

Question: What about the viability, T/C [28] of the same compound?
Answer: The viability, T/C was 46.9%.

Question: And the viability, T/C [29]?
Answer: The viability, T/C was 38.5%.

Question: What about the viability, T/C [30] of the same compound?
Answer: Its viability, T/C is 22.4%.

Question: And the viability, T/C [31]?
Answer: The viability, T/C was 77.2%.

Question: And the viability, T/C [32]?
Answer: The viability, T/C was 66.6%.

Question: And the viability, T/C [33]?
Answer: Its viability, T/C is 57.1%.

Question: What about the viability, T/C [34] of the same compound?
Answer: The viability, T/C was 42.1%.

Question: What about the viability, T/C [35] of the same compound?
Answer: The viability, T/C was 32.4%.

Question: And the viability, T/C [36]?
Answer: The viability, T/C was 17.7%.
